The subject of data set [1] is cells from the ex vivo mock cataract surgery explants. The data set can be described thus: ex vivo mock cataract surgery explants: myofibroblast emergence, αSMA and Fn-EDA expression. The format is cell-based, chick. An excerpt: For example, in a PCO model, using an ex vivo lens mock cataract surgery model in chick embryos that recapitulates features of PCO, we investigated the cell reprogramming events involved in regulating changes in epigenetic markings of chromatin, which result in alterations of chromatin structure and impact gene transcriptional programs to control the emergence of myofibroblasts.
We tested this epigenetic targeting strategy using a clinically relevant ex vivo chick mock cataract surgery model that recapitulates the major features of the lens fibrotic disease, PCO, as well as a human lens cells (SRA01/04). Human SRA01/04 lens cells are studied extensively for the acquisition of a mesenchymal phenotype resulting from an Epithelial Mesenchymal Transition (EMT) after exposure to TGFβ associated with the development of lens fibrosis.
(§1) FIG. 2A illustrates how the ex vivo mock cataract surgery explants are created. Ex vivo mock cataract surgery explants provide a powerful model in which to study wound healing as well as the development of fibrotic disease. Briefly, to create this model, the fiber cell mass is hydroeluted from the lens leaving behind lens epithelial cells that remain adherent to the lens capsule. The resultant ex vivo explant when placed in culture is star shaped, with the adherent cells located in the points of the star. In response to the injury induced by the surgery, mesenchymal cells involved in repair move to the wound edges.
As shown in FIG. 2B wound healing across the denuded basement membrane is typically completed by day 3. Lens epithelial cells led by a leader cell population, which expresses the surface receptor CD44+ [42], move collectively to repopulate the denuded area of the wounded lens capsule (where the differentiated lens fiber cells were removed). FIG. 2C depicts the wound area over a three-day period. In FIGS. 3A and B CD44+ leader cell population that has migrated to the outside wound edge of the explants (FIG. 3A, left panel, right arrow) directs the collective migration of lens epithelial cells onto the rigid tissue culture substrate, a region we refer to as the extracapsular zone (ECZ). […] Therefore, within one model system we can assess epigenetic targeting strategies for preventing fibrosis and determine how these approaches will affect normal wound healing. This ex vivo model was used to investigate the epigenetic mechanisms (detailed below) involved in regulating cell reprogramming to a myofibroblast phenotype associated with lens fibrotic disease.
Next, we tested if manipulating histone de-methylase activity could change chromatin structure to block pro-fibrotic transcription factors from binding to DNA and the acquisition to a myofibroblast phenotype associated with fibrosis. […] Thus, treatment with GSKJ4 prevents αSMA expression in the ex vivo mock cataract surgery model.
Cells from the ex vivo mock cataract surgery explants were treated with vehicle or GSKJ4 for 24 hr. ECZ regions were treated 1 day after injury and inhibitor was washed away after 24 hour of treatment. We chose to add the inhibitor on day 1, during the time of open chromatin, the perfect timing to prevent cell reprogramming to a fibrotic phenotype. […]
(§2) Cells from the ex vivo mock cataract surgery explant were treated for 24 hour as indicated above with vehicle or GSK-J4. […] In FIG. 13B we determined the effect of GSKJ4 short-term treatment on wound healing. […]

A further data set concerns FHL124 human lens cells. The data set can be described thus: TGFβ-stimulated human lens cells, western blot for FN-EDA and Collagen I. Conditions: FHL124 cells stimulated with TGFβ, FIG. 11. The format is cell-based. On the procedure:
We also performed similar studies with human lens cell culture. FHL124 human lens cells, a non-transformed spontaneously generated human lens cell line from embryonic explants, were stimulated with Transforming Growth Factor β (TGFβ), a potent inducer of the fibrotic response, in the absence or presence of the UTX inhibitor GSKJ4. Western blotting was performed with antibodies to extracellular matrix molecules associated with fibrosis, including Fibronectin EDA (FN-EDA), a splice form of FN and Collagen I. FN EDA expression is tightly linked to myofibroblast differentiation and Collagen I is a defining feature of fibrosis/scarring. GAPDH was used as a loading control for WB analysis.
(Immunoblotting shows a protein as a band on a membrane.)

Data set [2] has as its system ex vivo mock cataract surgery explants. The data set can be described thus: wound healing (open wound area) in ex vivo mock cataract surgery explants. The format is cell-based, chick.
From the text: as §1
As shown in FIG. 2B wound healing across the denuded basement membrane is typically completed by day 3. […]
We also determined whether GSKJ4 treatment affected wound healing. […] Open wound area (μm^2) was measured on Day 0 (D0) through Day 3 (D3) in the presence of vehicle control (DMSO) or GSKJ4. Open wound area was measured for each ex vivo capsule D0-D3 and presented in the graph+/− SEM. […]
as §2

Data set [3] in a line: evaluation of GSKJ1, GSKJ2, GSKJ4, GSKJ5: cellular permeability / bioavailability. The format is in vitro ADME. An excerpt: (§3) To further review compounds in this class, we evaluated […]4, and GSKJ5. Based on our data, and review of the molecule, the highly polar carboxylate group of GSKJ1 and GSKJ2 restricts cellular permeability. […] Accordingly, for purposes of treating disease and disorders here, the most preferred active pharmaceutical compound is GSK-J4.

Data set [4] can be described thus: evaluation of GSKJ1, GSKJ2, GSKJ4, GSKJ5: efficacy / in vitro studies. Conditions: for efficacy / activity: ethyl esters of GSKJ1 and GSKJ2; for potency in in vitro studies: over a control, data not shown.
From the text: as §3

Data set [5] in a line: testing of GSK-J4 concentration range (efficacy and toxicity). On the procedure:
For example, when administering GSK-J4 to a patient, an appropriate therapeutic range comprises: about 1 μM to 10 μM concentration for a liquid, topical vehicle. Suitable doses can be generated based upon the tissue to be treated and area to be treated. […] The LD50 is otherwise known to those of skill in the art based upon the molecule of interest. The GSK-J4 can be formulated with suitable excipients and into a suitable vehicle for delivery to a human patient.

“Also recorded” adds a separate entry of the source. Like-named read-outs stand apart in the source and are kept apart here.

Turning to `CCOC(=O)CCNc1cc(N2CCc3ccccc3CC2)nc(-c2ccccn2)n1` [GSK-J4], in data set [1] (24 hour treatment, FIGS. 14A and B), the “myofibroblast emergence, short-term treatment” value was “effective to block”. In data set [1] (cells from ex vivo mock cataract surgery explants, FIG. 10A, B), the αSMA expression entry is listed as “prevents”. In addition, in data set [1] (ex vivo mock cataract surgery model, FIG. 10A), the emergence of myofibroblasts result is on record as “effectively suppressed”. Further, the “Fn-EDA expression, short-term treatment” value in data set [1] (treated 24 hr from day 1 after injury, washed away, lysates day 3, western blot) is on record as “significantly inhibited”. For the same compound, the “αSMA expression, short-term treatment” value in data set [1] (treated 24 hr from day 1 after injury, washed away, lysates day 3, western blot (αSMA to GAPDH)) is recorded as “significantly inhibited; also recorded: effectively blocked”. In addition, in the data set on FHL124 human lens cells, the “TGFβ induced expression of Collagen I” value is recorded as “blocked” and the “TGFβ induced expression of FN EDA” value is “blocked”. Also, the “wound healing (open wound area)” value in data set [2] (Day 0 through Day 3 in presence of GSKJ4 vs DMSO, FIG. 12) is given as “somewhat slowed but did not prevent”. For the same compound, the “wound healing (open wound area), short-term treatment” value in data set [2] (treated at time of injury, day 0, for 24 hour, followed day 0 through day 4) was “does not affect”. Also, the bioavailability entry in data set [3] (ethyl ester masking the acid group) was “increased”. The efficacy / activity result in data set [4] is given as “greater efficacy”. Moreover, the efficacy by concentration entry in data set [5] (10 μM versus 1 μM) is “higher efficacy at 10 μM than the 1 μM”. The toxicity result in data set [5] (100 μM) is on record as “began to show signs of toxicity”.
Regarding `O=C(O)CCNc1cc(N2CCc3ccccc3CC2)nc(-c2ccccn2)n1` [GSKJ1], in data set [3], the cellular permeability result is “restricts”. For the same compound, the “potency in in vitro studies” value in data set [4] is “potent over a control”.
For the compound `O=C(O)CCNc1cc(N2CCc3ccccc3CC2)nc(-c2cccnc2)n1` [GSKJ2], the cellular permeability entry in data set [3] (highly polar carboxylate group) was “restricts”. For the same compound, the “potency in in vitro studies” value in data set [4] is recorded as “potent over a control”.
With `CCOC(=O)CCNc1cc(N2CCc3ccccc3CC2)nc(-c2cccnc2)n1` [GSKJ5], in data set [4], the efficacy / activity entry is “inactive”.

(Values after US12083125B2, “Drug-induced epigenetic remodeling to prevent fibrosis” (Thomas Jefferson University, priority 2016, dated 2024).)
